Earlier results as cited in paper PMC6437649 (Molecular Pharmaceutics, 2019).

C#C[C@]1(O)CC[C@H]2[C@@H]3CCC4=Cc5oncc5C[C@]4(C)[C@H]3CC[C@@]21C [danazol]
log P: 4.9
